Data published in patent US20030144249A1, “Use of organophosphorous compounds for producing a medicament for treating infections” (priority 2000, published 2003).
Where a name gives a salt, the structure may show the parent alone.

Key:
[1] = tested on: Sinapis arvensis; assay: Herbicidal activity, soil, pre-emergence; format: in vivo; conditions: Mutarda arvensis, read-out: Herbicidal activity, Sinapis arvensis
Procedure: (§1) Herbicidal activity is determined using standard methods.
(§2) Substances 1 to 8 listed on page 5 are again investigated.

[2] = tested on: Avena fatua; assay: Herbicidal activity, soil, pre-emergence; format: in vivo; conditions: read-out: Herbicidal activity, Avena fatua
Procedure: as §1, §2

[3] = tested on: Setaria viridis; assay: Herbicidal activity, soil, pre-emergence; format: in vivo; conditions: read-out: Herbicidal activity, Setaria viridis
Procedure: as §1, §2

[4] = tested on: Zea mays; assay: Herbicidal activity, soil, pre-emergence; format: in vivo; conditions: read-out: Herbicidal activity, Zea mays
Procedure: as §1, §2

[5] = tested on: Galium aperine; assay: Herbicidal activity, soil, pre-emergence; format: in vivo; conditions: read-out: Herbicidal activity, Galium aperine
Procedure: as §1, §2

[6] = tested on: Cyperus esculentus; assay: Herbicidal activity, soil, pre-emergence; format: in vivo; conditions: read-out: Herbicidal activity, Cyperus esculentus
Procedure: as §1, §2

[7] = tested on: Abutilon theophrasti; assay: Herbicidal activity, soil, pre-emergence; format: in vivo; conditions: read-out: Herbicidal activity, Abutilon theophrasti
Procedure: as §1, §2

[8] = tested on: Beta vulgaris; assay: Herbicidal activity, soil, pre-emergence; format: in vivo; conditions: read-out: Herbicidal activity, Beta vulgaris
Procedure: as §1, §2

[9] = tested on: Alopecurus myosuroides; assay: Herbicidal activity, soil, pre-emergence; format: in vivo; conditions: read-out: Herbicidal activity, Alopecurus myosuroides
Procedure: as §1, §2

[10] = tested on: Xanthium strumarium; assay: Herbicidal activity, soil, pre-emergence; format: in vivo; conditions: read-out: Herbicidal activity, Xanthium strumarium
Procedure: as §1, §2

[11] = tested on: Amaranthus retroflexus; assay: Herbicidal activity, soil, pre-emergence; format: in vivo; conditions: read-out: Herbicidal activity, Amaranthus retroflexus
Procedure: as §1, §2

[12] = tested on: Lepidium; assay: Herbicidal activity, water, pre-emergence; format: in vivo; conditions: read-out: Herbicidal activity, Lepidium
Procedure: as §1, §2

[13] = tested on: Rice; assay: Herbicidal activity, water, pre-emergence; format: in vivo; conditions: Oryza sativa, read-out: Herbicidal activity, Rice
Procedure: as §1, §2

[14] = tested on: Echinochloa; assay: Herbicidal activity, water, pre-emergence; format: in vivo; conditions: read-out: Herbicidal activity, Echinochloa
Procedure: as §1, §2

[15] = tested on: Solanum; assay: Herbicidal activity, water, pre-emergence; format: in vivo; conditions: read-out: Herbicidal activity, Solanum
Procedure: as §1, §2

[16] = biological target: T1, DOXP reductoisomerase from Helicobacter pylori (Helicobacter pylori, UniProt P56139); assay: DOXP reductoisomerase inhibition (NADPH oxidation at 365 nm); format: biochemical
T1 construct: made in house; host or cells: Helicobacter pylori (so in the source)
T1 sequence (P56139 1-368): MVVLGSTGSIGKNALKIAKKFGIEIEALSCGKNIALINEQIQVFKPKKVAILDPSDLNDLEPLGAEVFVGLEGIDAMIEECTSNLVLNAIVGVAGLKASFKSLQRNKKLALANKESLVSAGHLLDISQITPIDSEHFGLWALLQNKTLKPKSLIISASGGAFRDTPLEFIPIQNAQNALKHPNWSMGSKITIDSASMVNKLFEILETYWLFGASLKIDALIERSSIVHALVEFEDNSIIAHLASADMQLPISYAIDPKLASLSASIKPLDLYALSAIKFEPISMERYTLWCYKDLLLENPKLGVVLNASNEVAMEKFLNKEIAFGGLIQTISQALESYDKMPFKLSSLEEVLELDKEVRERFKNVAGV
Procedure: The DOXP reductoisomerase of Helicobacter pylori was expressed as a recombinant protein in Helicobacter pylori. The activity of DOXP reductoisomerase was determined in a batch containing 100 mM tris-HCl (pH=7.5), 1 mM MnCl2, 0.3 mM NADPH and 1 mM DOXP.
The oxidation of NADPH was here measured at 365 nm in a spectrophotometer. The inhibition studies were performed by measuring the activity of DOXP reductoisomerase in the presence of compounds 1 to 8 (see page 5) at various concentrations between 0. 1 and 100 μmol l^−1.

[17] = tested on: Sinapis arvensis; assay: Herbicidal activity, soil, post-emergence; format: in vivo; conditions: Mutarda arvensis, read-out: Herbicidal activity, Sinapis arvensis
Procedure: as §1, §2

[18] = tested on: Avena fatua; assay: Herbicidal activity, soil, post-emergence; format: in vivo; conditions: read-out: Herbicidal activity, Avena fatua
Procedure: as §1, §2

[19] = tested on: Setaria viridis; assay: Herbicidal activity, soil, post-emergence; format: in vivo; conditions: read-out: Herbicidal activity, Setaria viridis
Procedure: as §1, §2

[20] = tested on: Zea mays; assay: Herbicidal activity, soil, post-emergence; format: in vivo; conditions: read-out: Herbicidal activity, Zea mays
Procedure: as §1, §2

[21] = tested on: Galium aperine; assay: Herbicidal activity, soil, post-emergence; format: in vivo; conditions: read-out: Herbicidal activity, Galium aperine
Procedure: as §1, §2

[22] = tested on: Cyperus esculentus; assay: Herbicidal activity, soil, post-emergence; format: in vivo; conditions: read-out: Herbicidal activity, Cyperus esculentus
Procedure: as §1, §2

[23] = tested on: Abutilon theophrasti; assay: Herbicidal activity, soil, post-emergence; format: in vivo; conditions: read-out: Herbicidal activity, Abutilon theophrasti
Procedure: as §1, §2

[24] = tested on: Beta vulgaris; assay: Herbicidal activity, soil, post-emergence; format: in vivo; conditions: read-out: Herbicidal activity, Beta vulgaris
Procedure: as §1, §2

[25] = tested on: Alopecurus myosuroides; assay: Herbicidal activity, soil, post-emergence; format: in vivo; conditions: read-out: Herbicidal activity, Alopecurus myosuroides
Procedure: as §1, §2

[26] = tested on: Xanthium strumarium; assay: Herbicidal activity, soil, post-emergence; format: in vivo; conditions: read-out: Herbicidal activity, Xanthium strumarium
Procedure: as §1, §2

[27] = tested on: Amaranthus retroflexus; assay: Herbicidal activity, soil, post-emergence; format: in vivo; conditions: read-out: Herbicidal activity, Amaranthus retroflexus
Procedure: as §1, §2

## CP(=O)(CNCN(O)C(=O)CCCN1CCOCC1)Oc1ccccc1 (stereo not drawn) [Compound 4, N-[(4-N-Morpholinobutanoyl-N-hydroxy)aminomethyl]aminomethyl(methyl)phosphinic acid phenyl ester]
[1]
  pest or weed control at 2000 g/ha: 70%
[2]
  pest or weed control at 2000 g/ha: 60%
[3]
  pest or weed control at 2000 g/ha: 0%
[4]
  plant injury at 2000 g/ha: 30%
[5]
  pest or weed control at 2000 g/ha: 0%
[6]
  pest or weed control at 2000 g/ha: 0%
[7]
  pest or weed control at 2000 g/ha: 0%
[8]
  plant injury at 2000 g/ha: 60%
[9]
  pest or weed control at 2000 g/ha: 30%
[10]
  pest or weed control at 2000 g/ha: 0%
[11]
  pest or weed control at 2000 g/ha: 20%
[12]
  pest or weed control at 4000 g/ha: 40%
[13]
  plant injury at 4000 g/ha: 30%
[14]
  pest or weed control at 4000 g/ha: 70%
[15]
  pest or weed control at 4000 g/ha: 30%
[16]
  IC50: 110 nM
[17]
  pest or weed control at 2000 g/ha: 80%
[18]
  pest or weed control at 2000 g/ha: 70%
[19]
  pest or weed control at 2000 g/ha: 90%
[20]
  plant injury at 2000 g/ha: 70%
[21]
  pest or weed control at 2000 g/ha: 70%
[22]
  pest or weed control at 2000 g/ha: 0%
[23]
  pest or weed control at 2000 g/ha: 50%
[24]
  plant injury at 2000 g/ha: 50%
[25]
  pest or weed control at 2000 g/ha: 70%
[26]
  pest or weed control at 2000 g/ha: 90%
[27]
  pest or weed control at 2000 g/ha: 40%

## CP(=O)(O)C(O)CNCN(O)C(=O)c1ccco1 (stereo not drawn) [Compound 5, 2-(N-2-Furanoyl-N-hydroxy-aminomethyl)amino-1-hydroxyethylmethylphosphinic acid, sodium salt]
[1]
  pest or weed control at 2000 g/ha: 50%
[2]
  pest or weed control at 2000 g/ha: 0%
[3]
  pest or weed control at 2000 g/ha: 0%
[4]
  plant injury at 2000 g/ha: 0%
[5]
  pest or weed control at 2000 g/ha: 0%
[6]
  pest or weed control at 2000 g/ha: 0%
[7]
  pest or weed control at 2000 g/ha: 0%
[8]
  plant injury at 2000 g/ha: 30%
[9]
  pest or weed control at 2000 g/ha: 50%
[10]
  pest or weed control at 2000 g/ha: 0%
[11]
  pest or weed control at 2000 g/ha: 0%
[12]
  pest or weed control at 4000 g/ha: 40%
[13]
  plant injury at 4000 g/ha: 40%
[14]
  pest or weed control at 4000 g/ha: 80%
[15]
  pest or weed control at 4000 g/ha: 0%
[16]
  IC50: 130 nM
[17]
  pest or weed control at 2000 g/ha: 90%
[18]
  pest or weed control at 2000 g/ha: 80%
[19]
  pest or weed control at 2000 g/ha: 95%
[20]
  plant injury at 2000 g/ha: 80%
[21]
  pest or weed control at 2000 g/ha: 80%
[22]
  pest or weed control at 2000 g/ha: 0%
[23]
  pest or weed control at 2000 g/ha: 40%
[24]
  plant injury at 2000 g/ha: 40%
[25]
  pest or weed control at 2000 g/ha: 70%
[26]
  pest or weed control at 2000 g/ha: 60%
[27]
  pest or weed control at 2000 g/ha: 30%

## O=CN(O)CNCP(=O)(O)O [Compound 8]
[1]
  pest or weed control at 1000 g/ha: 30%
[2]
  pest or weed control at 1000 g/ha: 30%
[3]
  pest or weed control at 1000 g/ha: 0%
[4]
  plant injury at 1000 g/ha: 30%
[5]
  pest or weed control at 1000 g/ha: 0%
[6]
  pest or weed control at 1000 g/ha: 0%
[7]
  pest or weed control at 1000 g/ha: 0%
[8]
  plant injury at 1000 g/ha: 40%
[9]
  pest or weed control at 1000 g/ha: 30%
[10]
  pest or weed control at 1000 g/ha: 0%
[11]
  pest or weed control at 1000 g/ha: 20%
[12]
  pest or weed control at 2000 g/ha: 30%
[13]
  plant injury at 2000 g/ha: 30%
[14]
  pest or weed control at 2000 g/ha: 40%
[15]
  pest or weed control at 2000 g/ha: 30%
[16]
  IC50: 60 nM
[17]
  pest or weed control at 1000 g/ha: 70%
[18]
  pest or weed control at 1000 g/ha: 80%
[19]
  pest or weed control at 1000 g/ha: 90%
[20]
  plant injury at 1000 g/ha: 70%
[21]
  pest or weed control at 1000 g/ha: 70%
[22]
  pest or weed control at 1000 g/ha: 0%
[23]
  pest or weed control at 1000 g/ha: 50%
[24]
  plant injury at 1000 g/ha: 50%
[25]
  pest or weed control at 1000 g/ha: 80%
[26]
  pest or weed control at 1000 g/ha: 90%
[27]
  pest or weed control at 1000 g/ha: 50%
